In patent US10538506B2, “Crystal form of a potassium-competitive acid blocker and preparation method thereof” (Jiangsu Hansoh Pharmaceutical Group Co., Ltd., priority 2014, dated 2020):

How the values were obtained:
[1] = Long-term stability testing, inspection items; assay type: physicochemical; settings: for Appearance / Content (%) / HPLC identification / Moisture (%) / Particle size d (0.5) / Particle size d (0.9) / Related substance (%) Maximum unknown single impurity / Related substance (%) Total impurities: 30° C./65% humidity
Experimental: The samples were prepared according to the method of Example 1, and then were placed under the long-term stability conditions (temperature: 30° C.±2° C.; humidity: 65%±5%) for six months.

[2] = Hygroscopicity: weight gain due to moisture absorption; assay type: physicochemical
Experimental: The samples were prepared according to the method of Example 1, and the following tests were carried out:
(1) placing the sample at 25° C. and 75% humidity;
(2) placing the sample at 25° C. and 92.5% humidity.
The aforementioned two samples were taken and tested at different time points to investigate weight gain of the samples due to moisture absorption.

Appearance ([1]; 0 months): White powder | Content (%) ([1]; 0 months): 99.6% | HPLC identification ([1]; 0 months): Consistent | Moisture (%) ([1]; 0 months): 0.04% | Particle size d (0.5) ([1]; 0 months): d (0.5) ≤15 μm | Particle size d (0.9) ([1]; 0 months): d (0.9) ≤30 μm | Related substance (%) Maximum unknown single impurity ([1]; 0 months): 0.03% | Related substance (%) Total impurities ([1]; 0 months): 0.12% | Appearance ([1]; 3 months): White powder | Content (%) ([1]; 3 months): 100.0% | HPLC identification ([1]; 3 months): Consistent | Moisture (%) ([1]; 3 months): 0.08% | Particle size d (0.5) ([1]; 3 months): d (0.5) ≤15 μm | Particle size d (0.9) ([1]; 3 months): d (0.9) ≤30 μm | Related substance (%) Maximum unknown single impurity ([1]; 3 months): 0.04% | Related substance (%) Total impurities ([1]; 3 months): 0.13% | Appearance ([1]; 6 months): White powder | Content (%) ([1]; 6 months): 99.7% | HPLC identification ([1]; 6 months): Consistent | Moisture (%) ([1]; 6 months): 0.08% | Particle size d (0.5) ([1]; 6 months): d (0.5) ≤15 μm | Particle size d (0.9) ([1]; 6 months): d (0.9) ≤30 μm | Related substance (%) Maximum unknown single impurity ([1]; 6 months): 0.03% | Related substance (%) Total impurities ([1]; 6 months): 0.13% | Stability ([1]; long-term storage conditions, 30° C.±2° C., humidity 65%±5%, six months, fumarate): good stability | weight gain due to moisture absorption (%) ([2]; 25° C./RH 75%, 5 days): 0.01% | weight gain due to moisture absorption (%) ([2]; 25° C./RH 75%, 10 days): 0.13% | weight gain due to moisture absorption (%) ([2]; 25° C./RH 75%, 30 days): 0.12% | weight gain due to moisture absorption (%) ([2]; 25° C./RH 92.5%, 5 days): 0.17% | weight gain due to moisture absorption (%) ([2]; 25° C./RH 92.5%, 10 days): 0.12% | weight gain due to moisture absorption (%) ([2]; 25° C./RH 92.5%, 30 days): 0.19%
SMILES: CNCc1cc(-c2ccccc2F)n(S(=O)(=O)c2cccnc2)c1.O=C(O)/C=C/C(=O)O [Example 1, 1-[5-(2-fluorophenyl)-1-(pyridin-3-ylsulfonyl)-1H-pyrrol-3-yl]-N-methylmethanamine fumarate]
